Test results published in US10233184B2, “7-substituted sulfonimidoylpurinone compounds and derivatives for the treatment and prophylaxis of virus infection” (Hoffmann-La Roche Inc., priority 2016, dated 2019).
Converted amounts (≈) assume the structure as drawn. “And” between values parts separate entries of the source, which are not always exact repeats. Equal values may be shown once. Read-outs that look alike come from different tables or passages of the source.

Key:
[1] = Single dose PK study in male Wister-Han rats; assay type: in vivo; details: 5 mg/kg oral dosing of active form; for concentration at 7 h: 7 hrs (footnote), read-out: Mean plasma concentration (nM), 7 hrs (row 8*)
Experimental: The single dose PK in Male Wister-Han Rats was performed to assess pharmacokinetic properties of tested compounds. Two groups of animals were dosed via Gavage (POE) of the respective compound. […] Blood samples were placed into tubes containing EDTA-K2 anticoagulant and centrifuged at 5000 rpm for 6 min at 4° C. to separate plasma from the samples. After centrifugation, the resulting plasma was transferred to clean tubes for bioanalysis of both prodrug and active form on LC/MS/MS. In the groups that prodrug were dosed, the concentration of prodrugs in the plasma samples was under the detection limit. The “tested compound” in Table 8 was used as the internal standard for testing the metabolite (active form) of “dose compound” in vivo. The pharmacokinetic parameters were calculated using non-compartmental module of WinNonlin® Professional 6.2. The peak concentration (Cmax) was recorded directly from experimental observations. The area under the plasma concentration-time curve (AUC0-t) was calculated using the linear trapezoidal rule up to the last detectable concentration. Cmax and AUC0-last are two critical PK parameters related to the in vivo efficacy of the tested compound. Compounds with higher Cmax and AUC0-last will lead to the better in vivo efficacy.

LYSA solubility study = assay type: physicochemical; details: for solubility thermodynamic: phosphate buffer, pH 6.5, aqueous buffer, thermodynamic from solid; for LYSA of Active Forms: aqueous solubility, 0.05M phosphate buffer pH 6.5
Experimental: LYSA study is used to determine the aqueous solubility of tested compounds. Samples were prepared in duplicate from 10 mM DMSO stock solution. After evaporation of DMSO with a centrifugal vacuum evaporator, the compounds were dissolved in 0.05M phosphate buffer (pH 6.5), stirred for one hour and shaken for two hours. After one night, the solutions were filtered using a microtiter filter plate. Then the filtrate and its 1/10 dilution were analyzed by HPLC-UV. […] The results were in μg/mL. In case the percentage of sample measured in solution after evaporation divided by the calculated maximum of sample amount was bigger than 80%, the solubility was reported as bigger than this value.

human TLR7 = target: T1, human TLR7 (Homo sapiens, UniProt Q9NYK1); test: HEK293-Blue-hTLR-7 cells assay (SEAP reporter); assay type: cell-based; details: for EC50: HEK293-Blue-hTLR-7 cells, SEAP reporter, 20 hrs; for Ratio (EC50(prodrug)/EC50(active form)): EC50 of prodrug over EC50 of corresponding active form
T1 sequence (Q9NYK1 27-1049): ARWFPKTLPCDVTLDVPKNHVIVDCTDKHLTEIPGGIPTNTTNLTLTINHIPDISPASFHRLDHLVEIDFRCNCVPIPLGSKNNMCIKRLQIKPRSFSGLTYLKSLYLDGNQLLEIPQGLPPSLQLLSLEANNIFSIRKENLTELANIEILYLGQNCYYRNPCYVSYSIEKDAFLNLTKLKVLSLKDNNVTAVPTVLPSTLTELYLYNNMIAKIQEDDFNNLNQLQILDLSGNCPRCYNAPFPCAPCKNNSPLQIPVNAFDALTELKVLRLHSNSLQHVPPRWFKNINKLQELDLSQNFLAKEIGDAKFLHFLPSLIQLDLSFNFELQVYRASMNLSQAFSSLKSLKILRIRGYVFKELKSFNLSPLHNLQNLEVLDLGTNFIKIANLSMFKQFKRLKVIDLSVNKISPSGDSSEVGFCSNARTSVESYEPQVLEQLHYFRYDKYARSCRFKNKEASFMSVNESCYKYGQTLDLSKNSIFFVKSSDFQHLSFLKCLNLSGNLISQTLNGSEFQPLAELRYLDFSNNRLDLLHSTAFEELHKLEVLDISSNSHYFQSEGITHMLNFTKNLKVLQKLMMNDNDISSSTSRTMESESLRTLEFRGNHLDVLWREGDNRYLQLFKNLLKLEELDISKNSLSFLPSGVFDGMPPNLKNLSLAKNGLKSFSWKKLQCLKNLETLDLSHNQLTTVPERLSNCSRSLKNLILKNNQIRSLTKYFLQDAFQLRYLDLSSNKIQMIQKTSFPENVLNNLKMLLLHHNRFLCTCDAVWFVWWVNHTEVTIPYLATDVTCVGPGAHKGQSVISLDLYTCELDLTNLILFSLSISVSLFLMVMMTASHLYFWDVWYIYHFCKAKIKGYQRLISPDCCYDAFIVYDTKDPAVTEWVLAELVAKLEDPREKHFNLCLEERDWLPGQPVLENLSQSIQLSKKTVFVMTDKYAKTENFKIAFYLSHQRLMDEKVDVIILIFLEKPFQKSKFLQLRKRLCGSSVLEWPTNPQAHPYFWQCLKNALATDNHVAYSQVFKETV
Summary of the method: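 HEK293-Blue-hTLR7 cells with NF-κB/AP-1-driven SEAP reporter exposed to serially diluted compound (1% DMSO) for 20 hrs at 37° C. Supernatant SEAP measured with QUANTI-Blue after 2 hrs at 37° C, absorbance 620~655 nm; agonism expressed as EC50.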

[2] = male, Wister-Han, rat, plasma, po, 5 mg/kg
[3] = 0.05M phosphate buffer pH 6.5, read-out: LYSA of Active Forms
[4] = active form, read-out: HEK293-hTLR-7 EC50 (Active form)
[5] = 0.05M phosphate buffer pH 6.5, read-out: LYSA of Prodrugs
[6] = prodrug, read-out: HEK293-hTLR-7 EC50 (Prodrug)

SMILES	AUC(0-t) [1, 2] [µM·h]	Cmax [1, 2] [nM]	concentration at 0.25 h [1, 2] [nM]	concentration at 0.5 h [1, 2] [nM]	concentration at 1 h [1, 2] [nM]	concentration at 2 h [1, 2] [nM]	concentration at 4 h [1, 2] [nM]	concentration at 7 h [1, 2] [nM]	solubility thermodynamic (LYSA solubility study; [3]) [µg/mL]	EC50 (human TLR7; [4])	solubility thermodynamic (LYSA solubility study; [5]) [µg/mL]	Ratio (EC50(prodrug)/EC50(active form)) (human TLR7)	EC50 (human TLR7; [6]) [µM]	other results
CC[S@](=N)(=O)c1nc(N)c2[nH]c(=O)n(Cc3ccc(Cl)cc3)c2n1 (single isomer, unassigned) [Compound 41c-A]	0.242	32.3	16.8	27.5	32.3	27.3	27.4	18	1 (≈ 2.73 µM)	0.071 µM				concentration at 24 h [1, 2]: 5.6 nM
CC[S@@](=N)(=O)c1nc(N)c2[nH]c(=O)n(Cc3ccc(Cl)cc3)c2n1 (single isomer, unassigned) [Compound 41c-B]	0.0558	5.46	3.41	0.75	2.04	5.46	2.52	1.21	5 (≈ 13.6 µM)	0.085 µM				
CC[S@@](=N)(=O)c1nc(N)c2[nH]c(=O)n(Cc3ccc(C)cc3)c2n1 (single isomer, unassigned) [Compound 43e-A]	0.077	15.2	12.6	15.2	13	12	8.2	6.31	13 (≈ 37.5 µM)	0.11 µM				
CCS(=N)(=O)c1nc(N)c2[nH]c(=O)n(Cc3ccc(F)cc3)c2n1 (single isomer, unassigned) [Compound 45e-A]	0.767	80	64.6	80	58.1	42.5	77.8			0.39 µM and 0.26 µM				concentration at 8 h [1, 2]: 34.6 nM; concentration at 24 h [1, 2]: 8.6 nM; LYSA of Active Forms (LYSA solubility study): 90 µg/mL
CCS(=N)(=O)c1nc(N)c2[nH]c(=O)n(Cc3ccc(F)cc3)c2n1 (single isomer, unassigned) [Compound 45e-B]										0.26 µM and 0.39 µM				AUC0-last [1]: 0.568 µM·h; Cmax [1]: 53.9 nM; concentration at 0.25 h ([1]; read-out: Mean plasma concentration (nM), 0.25 h): 42.8 nM; concentration at 0.5 h ([1]; read-out: Mean plasma concentration (nM), 0.5 h): 52.2 nM; concentration at 1 h ([1]; read-out: Mean plasma concentration (nM), 1 h): 37.6 nM; concentration at 2 h ([1]; read-out: Mean plasma concentration (nM), 2 h): 24.2 nM; concentration at 4 h ([1]; read-out: Mean plasma concentration (nM), 4 h): 53.9 nM; concentration at 8 h ([1]; read-out: Mean plasma concentration (nM), 8 h): 29 nM; concentration at 24 h ([1]; read-out: Mean plasma concentration (nM), 24 h): 5.7 nM; LYSA of Active Forms (LYSA solubility study): 115 µg/mL
CCCS(=N)(=O)c1nc(N)c2c(n1)n(Cc1ccccc1)c(=O)n2C(=O)N(C)CCN(C)C(=O)OCC (centres unmarked) [Example 28, Ethyl N-[2-[[6-amino-9-benzyl-8-oxo-2-(propylsulfonimidoyl)purine-7-carbonyl]-methyl-amino]ethyl]-N-methyl-carbamate]											695 (≈ 1300 µM)	106.2	6.9	
CCCCN(C)C(=O)OCCN(C)C(=O)n1c(=O)n(Cc2ccccc2)c2nc(S(=N)(=O)CCC)nc(N)c21 (centres unmarked) [Example 29, 2-[[6-Amino-9-benzyl-8-oxo-2-(propylsulfonimidoyl)purine-7-carbonyl]-methyl-amino]ethyl N-butyl-N-methyl-carbamate]											395 (≈ 705 µM)	750.8	48.8	
CCCS(=N)(=O)c1nc(N)c2c(n1)n(Cc1ccccc1)c(=O)n2C(=O)N(C)CCOC(=O)N(CC)CC (centres unmarked) [Example 32, 2-[[6-Amino-9-benzyl-8-oxo-2-(propylsulfonimidoyl)purine-7-carbonyl]-methyl-amino]ethyl N,N-diethylcarbamate]											125 (≈ 229 µM)	346.2	22.5	
CCCN(C)C(=O)n1c(=O)n(Cc2ccc(C)cc2)c2nc([S@@](=N)(=O)CCC)nc(N)c21 [Example 36-A, 6-Amino-N-methyl-8-oxo-N-propyl-2[S(S)-propylsulfonimidoyl]-9-(p-tolylmethyl)purine-7-carboxamide]											168 (≈ 366 µM)	1673.7	31.8	
